≈ marks a conversion by molar mass, not a printed value.
Legend:
[1] = Apparent permeability across apical to basolateral membrane in human Caco2 cells at 10 uM measured after 2 hrs by UPLC-MS/MS analysis; settings: caco-2, 2 h
[2] = Apparent permeability across basolateral to apical membrane in human Caco2 cells at 10 uM measured after 2 hrs by UPLC-MS/MS analysis; settings: caco-2, 2 h
[3] = physchem; settings: 1% DMSO : 99% PBS buffer solution
[4] = molecular target: T1, Bifunctional epoxide hydrolase 2 (Homo sapiens, UniProt P34913); assay: Inhibition of recombinant human liver soluble epoxide hydrolase expressed in baculovirus infected Sf21 cells using NEPC as substrate by fluorescence based assay; type: cell-based
T1 sequence (P34913 whole entry): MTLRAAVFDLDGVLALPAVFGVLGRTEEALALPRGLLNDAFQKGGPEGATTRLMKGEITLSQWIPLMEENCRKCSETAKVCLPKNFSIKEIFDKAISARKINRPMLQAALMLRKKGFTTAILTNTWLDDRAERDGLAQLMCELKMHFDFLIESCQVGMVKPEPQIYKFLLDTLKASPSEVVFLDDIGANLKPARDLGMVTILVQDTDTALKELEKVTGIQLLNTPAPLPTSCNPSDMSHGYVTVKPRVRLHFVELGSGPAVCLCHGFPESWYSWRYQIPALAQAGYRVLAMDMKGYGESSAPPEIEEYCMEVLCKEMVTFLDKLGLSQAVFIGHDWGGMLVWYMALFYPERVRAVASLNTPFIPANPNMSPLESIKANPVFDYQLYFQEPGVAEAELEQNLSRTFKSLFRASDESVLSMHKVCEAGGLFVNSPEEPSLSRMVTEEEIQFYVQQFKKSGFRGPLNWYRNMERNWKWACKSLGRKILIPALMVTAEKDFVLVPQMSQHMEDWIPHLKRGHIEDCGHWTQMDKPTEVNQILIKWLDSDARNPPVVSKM

[5] = Microsomal stability in human microsomes assessed as parent compound remaining in presence of NADP, glucose-6-phosphate and glucose-6-phosphate dehydrogenase measured after 60 mins by UPLC-MS/MS analysis
[6] = molecular target: T2, Bifunctional epoxide hydrolase 2 (Mus musculus, UniProt P34914); assay: Inhibition of murine soluble epoxide hydrolase expressed in baculovirus infected Sf21 cells using NEPC as substrate by fluorescence based assay; type: cell-based
T2 sequence (P34914 whole entry): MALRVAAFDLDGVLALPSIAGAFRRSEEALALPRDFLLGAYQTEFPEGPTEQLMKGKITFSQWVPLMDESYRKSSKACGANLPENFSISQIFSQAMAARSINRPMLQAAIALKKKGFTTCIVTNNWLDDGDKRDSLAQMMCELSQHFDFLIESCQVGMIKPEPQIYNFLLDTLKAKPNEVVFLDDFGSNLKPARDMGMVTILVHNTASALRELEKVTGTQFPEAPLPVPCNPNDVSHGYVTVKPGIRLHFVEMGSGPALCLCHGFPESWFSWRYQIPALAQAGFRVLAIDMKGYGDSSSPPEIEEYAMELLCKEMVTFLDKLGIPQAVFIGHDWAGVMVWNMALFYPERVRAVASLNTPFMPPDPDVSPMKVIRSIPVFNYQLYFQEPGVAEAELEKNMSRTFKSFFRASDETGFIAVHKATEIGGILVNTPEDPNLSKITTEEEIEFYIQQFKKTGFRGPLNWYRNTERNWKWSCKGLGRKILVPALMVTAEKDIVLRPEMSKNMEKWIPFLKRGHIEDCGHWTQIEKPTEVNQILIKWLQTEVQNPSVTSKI

[7] = Efflux ratio of apparent permeability across basolateral to apical membrane over apical to basolateral membrane in human Caco2 cells at 10 uM measured after 2 hrs by UPLC-MS/MS analysis; settings: caco-2, 2 h

Row | SMILES | Papp [1] [×10⁻⁶ cm/s] | Papp [2] [×10⁻⁶ cm/s] | solubility kinetic at 2 h [3] [µM] | IC50 [4] [nM] | remaining at 1 h [5] [%] | IC50 [6] [nM] | Ratio [7]
1 | O=C(Nc1ccc(F)c(F)c1F)NC12CC3CC(CC(C3)C1)C2 | 1.18 | 0.18 | 57 (≈ 18.5 µg/mL) |  |  |  | 
2 | CC(=O)N1CCC(NC(=O)NC23CC4CC(CC2C4)C3)CC1 |  |  |  | 21.7 | 88.7 |  | 
3 | CC12CC3CC1(C)CC3(NC(=O)Nc1ccc(F)c(F)c1F)C2 |  |  | 66 (≈ 21.4 µg/mL) | 0.5 | 30 |  | 
4 | CC12CC3CC1(C)CC3(CNC(=O)Nc1ccc(F)c(F)c1F)C2 |  |  |  | 0.4 |  |  | 
5 | CC(=O)N1CCC(NC(=O)NC23CC4(C)CC2CC4(C)C3)CC1 | 15.92 | 18.02 | > 100 | 6.5 | 59.3 | 3.3 | 1.1
6 | CC(=O)N1CCC(NC(=O)NC2C3CC4C5CC6CC4C2C(C6)C5C3)CC1 (stereo unspecified) | 15.62 | 14.69 | 86 (≈ 32 µg/mL) | 3.4 | 0 | 5 | 1
7 | O=C(NC1C2CC3C4CC5CC3C1C(C5)C4C2)N[C@H]1CC[C@H](Oc2ccc(C(=O)O)cc2)CC1 (stereo partly specified) | 0.31 | 6.75 | 7 (≈ 3.25 µg/mL) | 0.5 | 14.6 |  | 22.2
8 | CC(=O)N1CCC(NC(=O)NC23CC4CC(CC(C4)C2)C3)CC1 [AR9281] |  |  | > 100 |  |  |  | 
9 | C[C@]12CC[C@H]3[C@@H](CCC4=CC(=O)CC[C@@]43C)[C@@H]1CC[C@@H]2O [TESTOSTERONE] |  |  |  |  | 22.4 |  | 
